From patent publication US20050209256A1, “Novel beta-turn mimetics as calcitonin gene related peptide receptor antagonists” (priority 2004, published 2005)

Target: T1, human CGRP receptor (Homo sapiens, UniProt O60894+Q16602)
T1 construct: SK-N-MC cells that endogenously express the human CGRP receptor; endogenous in cells; host or cells: SK-N-MC cells (membrane homogenates)
Experiment: Radioligand binding assay, [125I]-CGRP competition on SK-N-MC cell homogenates
Conditions: Binding data, [125I]-CGRP 40 pM, room temperature
Description: Tissue culture. SK-N-MC cells were grown at 37° C. in 5% CO2 as a monolayer in medium consisting of MEM with Earle's salts and L-glutamine (Gibco) supplemented with 10% fetal bovine serum (Gibco).
Radioligand binding assays. Cells were rinsed twice with phosphate-buffered saline (155 mM NaCl, 3.3 mM Na2HPO4, 1.1 mM KH2PO4, pH 7.4), and incubated for 5-10 min. at 4° C. in hypotonic lysis buffer consisting of 10 mM Tris (pH 7.4) and 5 mM EDTA. Cells were transferred from plates to polypropylene tubes (16×100 mm), homogenized and centrifuged at 32,000×g for 30 min. Pellets were resuspended in buffer consisting of 50 mM Tris (pH 7.4) and 1 mM EDTA, homogenized, and centrifuged again at 32,000×g for 30 min. Pellets were resuspended in 100 mM Tris-Cl pH 7.5, 10 mM MgCl2, 0.1% mammalian protease inhibitor cocktail (Sigma) and stored at −80° C. until needed. On the day of an experiment, homogenates were thawed and homogenized again. Binding of [^125I]-CGRP (NEN) was carried out in buffer containing 50 mM Tris-Cl pH 7.5, 5 mM MgCl2, 0.5% BSA. Homogenates (3.5 μg protein/well) were incubated with competitor compounds (solubilized in 100% DMSO at 100× their final assay concentrations) for one hour at room temperature. Then [^125I]-CGRP was added (40 pM final concentration) and the reaction incubated for one additional hour at room temperature. Assays were stopped by addition of cold wash buffer (20 mM Tris-Cl pH 7.5, 0.1% BSA) immediately followed by filtration over glass fiber filters (Whatman GF/B) previously soaked in 0.5% PEI. Non-specific binding was defined with 100 nM CGRP.

CC(=O)c1ccc(NC(=O)N2CCC(=O)N3[C@@H]2CN(CCc2cccc(F)c2)C(=O)[C@@H]3CC(=O)OCc2ccccc2)cc1 [Compound 30, {1-(4-Acetyl-phenylcarbamoyl)-(6S,9aS)-8-[2-(3-fluoro-phenyl)-ethyl]-4,7-dioxo-octahydro-pyrazino [1,2-a]pyrimidin-6-yl}-acetic acid benzyl ester]
IC50: 2210 nM

CC[C@H](C)[C@H]1C(=O)N(CCc2cccc(F)c2)C[C@@H]2N(C(=O)Nc3ccc(C(C)=O)cc3)CCC(=O)N12 (stereo in doubt) [Compound 47, (6S,9aS)-6-(1R-Methyl-propyl)-8-[2-(3-fluoro-phenyl)-ethyl]-(S,S)-4,7-dioxo-hexahydro-pyrazino[1,2-a]pyrimidine-1-carboxylic acid (4-acetyl-phenyl)-amide]
IC50: 192 nM

CC(=O)c1ccc(NC(=O)N2CCC(=O)N3[C@@H]2CN(CCc2cccc(F)c2)C(=O)[C@@H]3CCS(C)(=O)=O)cc1 [Compound 36, (6S,9aS)-8-[2-(3-Fluoro-phenyl)-ethyl]-6-(2-methanesulfonyl-ethyl)-4,7-dioxo-hexahydro-pyrazino[1,2-a]pyrimidine-1-carboxylic acid (4-acetyl-phenyl)-amide]
IC50: 350 nM

CCSCC1C(=O)N(CCc2cccc(F)c2)C[C@@H]2N(C(=O)Nc3ccc(C(C)=O)cc3)CCC(=O)N12 (stereo in doubt) [Compound 35, (6S,9aS)-6-Ethylsulfanylmethyl-8-[2-(3-fluoro-phenyl)-ethyl]-4,7-dioxo-hexahydro-pyrazino[1,2-a]pyrimidine-1-carboxylic acid (4-acetyl-phenyl)-amide]
IC50: 244 nM

CC(=O)c1ccc(NC(=O)N2CCC(=O)N3[C@@H]2CN(CCc2cccc(F)c2)C(=O)[C@@H]3CC(C)C)cc1 [Compound 23, (6S,9aS)-8-[2-(3-Fluoro-phenyl)-ethyl]-6-isobutyl-4,7-dioxo-hexahydro-pyrazino[1,2-a]pyrimidine-1-carboxylic acid (4-acetyl-phenyl)-amide]
IC50: 184 nM

CC(=O)c1ccc(NC(=O)N2CCC(=O)N3[C@@H]2CN(CCc2ccccc2)C(=O)[C@@H]3CC2CCCCC2)cc1 [Compound 65, (6S,9aS)-6-Cyclohexylmethyl-4,7-dioxo-8-phenethyl-hexahydro-pyrazino[1,2-a]pyrimidine-1-carboxylic acid (4-acetyl-phenyl)-amide]
IC50: 517 nM

CC(=O)c1ccc(NC(=O)N2CCC(=O)N3[C@@H]2CN(CCc2cccc(F)c2)C(=O)[C@@H]3Cc2c(F)c(F)c(F)c(F)c2F)cc1 [Compound 57, (6S,9aS)-8-[2-(3-Fluoro-phenyl)-ethyl]-4,7-dioxo-6-pentafluorophenylmethyl-hexahydro-pyrazino [1,2a]pyrimidine-1-carboxylic acid (4-acetyl-phenyl)-amide]
IC50: 500 nM

CC(=O)c1ccc(NC(=O)N2CCC(=O)N3C(C[S+]([O-])Cc4ccccc4)C(=O)N(CCc4cccc(F)c4)C[C@H]23)cc1 (stereo in doubt) [Compound 44, (6S,9aS)-8-[2-(3-Fluoro-phenyl)-ethyl]-4,7-dioxo-6-phenylmethanesulfinylmethyl-hexahydro-pyrazino[1,2-a]pyrimidine-1-carboxylic acid (4-acetyl-phenyl)-amide]
IC50: 3440 nM

CC(=O)c1ccc(NC(=O)N2CCC(=O)N3[C@@H](C4CCCCC4)C(=O)N(CCc4cccc(F)c4)C[C@H]23)cc1 [Compound 48, (6S,9aS)-6-Cyclohexyl-8-[2-(3-fluoro-phenyl)-ethyl]-4,7-dioxo-hexahydro-pyrazino[1,2-a]pyrimidine-1-carboxylic acid (4-acetyl-phenyl)-amide]
IC50: 115 nM

CC(=O)c1ccc(NC(=O)N2CCC(=O)N3[C@@H](C4CCCCC4)C(=O)N(CCc4cccnc4)C[C@H]23)cc1 [Compound 140, (6S,9aS)-6-Cyclohexyl-4,7-dioxo-8-(2-pyridin-3-yl-ethyl)-hexahydro-pyrazino[1,2-a]pyrimidine-1-carboxylic acid (4-acetyl-phenyl)-amide]
IC50: 2440 nM

CC(=O)c1ccc(NC(=O)N2CCC(=O)N3[C@@H](c4ccc(F)c(F)c4)C(=O)N(CCc4cccc(F)c4)C[C@H]23)cc1 [Compound 151, 6-(3,4-Difluoro-phenyl)-8-[2-(3-fluoro-phenyl)-ethyl]-4,7-dioxo-hexahydro-pyrazino [1,2-a]pyrimidine-1-carboxylic acid (4-acetyl-phenyl)-amide]
IC50: 39 nM

CC(=O)c1ccc(NC(=O)N2CCC(=O)N3[C@@H](c4cccc(F)c4F)C(=O)N(CCc4cccc(F)c4)C[C@H]23)cc1 [Compound 154, (6S,9aS)-6-(2,3-Difluoro-phenyl)-8-[2-(3-fluoro-phenyl)-ethyl]-4,7-dioxo-hexahydro-pyrazino[1,2-a]pyrimidine-1-carboxylic acid (4-acetyl-phenyl)-amide]
IC50: 363 nM

CC(=O)c1ccc(NC(=O)N2CCC(=O)N3[C@@H](C4CCCCC4)C(=O)N(CCc4ccccc4Cl)C[C@H]23)cc1 [Compound 116, (6S,9aS)-8-[2-(2-Chloro-phenyl)-ethyl]-6-cyclohexyl-4,7-dioxo-hexahydro-pyrazino[1,2-a]pyrimidine-1-carboxylic acid (4-acetyl-phenyl)-amide]
IC50: 2580 nM

CC(=O)c1ccc(NC(=O)N2CCC(=O)N3[C@@H]2CN(CCc2cccc(F)c2)C(=O)[C@@H]3CC2CCCCC2)cc1 [Compound 28, (6S,9aS)-6-Cyclohexylmethyl-8-[2-(3-fluoro-phenyl)-ethyl]-4,7-dioxo-hexahydro-pyrazino[1,2-a]pyrimidine-1-carboxylic acid (4-acetyl-phenyl)-amide]
IC50: 188 nM

CC(=O)c1ccc(OC(=O)N2CCC(=O)N3[C@@H]2CN(CCc2ccccc2)C(=O)[C@@H]3CC2CCCCC2)c(C)c1 [Compound 144, (6S,9aS)-6-Cyclohexylmethyl-4,7-dioxo-8-phenethyl-hexahydro-pyrazino[1,2-a]pyrimidine-1-carboxylic acid 4-acetyl-2-methyl-phenyl ester]
IC50: 7400 nM

CC(=O)c1ccc(NC(=O)N2CCC(=O)N3[C@@H](C4CCCCC4)C(=O)N(CCc4ccc(F)cc4)C[C@H]23)cc1 [Compound 122, (6S,9aS)-6-Cyclohexyl-8-[2-(4-fluoro-phenyl)-ethyl]-4,7-dioxo-hexahydro-pyrazino[1,2-a]pyrimidine-1-carboxylic acid (4-acetyl-phenyl)-amide]
IC50: 890 nM

CC(=O)c1ccc(NC(=O)N2CCC(=O)N3C(CSCc4ccccc4)C(=O)N(CCc4cccc(F)c4)C[C@H]23)cc1 (stereo in doubt) [Compound 41, (6S,9aS)-6-Benzylsulfanylmethyl-8-[2-(3-fluoro-phenyl)-ethyl]-4,7-dioxo-hexahydro-pyrazino [1,2-a]pyrimidine-1-carboxylic acid (4-acetyl-phenyl)-amide]
IC50: 237 nM

CC(=O)c1ccc(NC(=O)N2CCC(=O)N3[C@@H]2CN(CCc2cccc(F)c2)C(=O)[C@@H]3C)cc1 [Compound 25, (6S,9aS)-8-[2-(3-Fluoro-phenyl)-ethyl]-6-methyl-4,7-dioxo-hexahydro-pyrazino[1,2-a]pyrimidine-1-carboxylic acid (4-acetyl-phenyl)-amide]
IC50: 30000 nM

CC(=O)c1ccc(NC(=O)N2CCC(=O)N3[C@@H]2CN(CCc2cccc(F)c2)C(=O)[C@@H]3Cc2ccc(F)cc2)cc1 [Compound 58, (6S,9aS)-6-(4-Fluoro-benzyl)-8-[2-(3-fluoro-phenyl)-ethyl]-4,7-dioxo-hexahydro-pyrazino[1,2-a]pyrimidine-1-carboxylic acid (4-acetyl-phenyl)-amide]
IC50: 814 nM

CC(=O)c1ccc(NC(=O)N2CCC(=O)N3[C@@H]2CN(CCc2cccc(F)c2)C(=O)[C@@H]3Cc2cc(Br)c(O)c(Br)c2)cc1 [Compound 34, (6S,9aS)-6-(3,5-Dibromo-4-hydroxy-benzyl)-8-[2-(3-fluoro-phenyl)-ethyl]-4,7-dioxo-hexahydro-pyrazino[1,2-a]pyrimidine-1-carboxylic acid (4-acetyl-phenyl)-amide]
IC50: 1170 nM

CC(=O)c1ccc(NC(=O)N2CCC(=O)N3[C@@H]2CN(CCc2cccc(F)c2)C(=O)[C@@H]3COCc2ccccc2)cc1 [Compound 32, (6S,9aS)-6-Benzyloxymethyl-8-[2-(3-fluoro-phenyl)-ethyl]-4,7-dioxo-hexahydro-pyrazino[1,2-a]pyrimidine-1-carboxylic acid (4-acetyl-phenyl)-amide]
IC50: 598 nM

CC(=O)c1ccc(NC(=O)N2CCC(=O)N3[C@@H]2CN(CCc2ccccc2)C(=O)[C@@H]3Cc2ccc(F)c(F)c2)cc1 [Compound 63, (6S,9aS)-6-(3,4-Difluoro-benzyl)-4,7-dioxo-8-phenethyl-hexahydro-pyrazino[1,2-a]pyrimidine-1-carboxylic acid (4-acetyl-phenyl)-amide]
IC50: 3040 nM
